In ChEMBL document CHEMBL1152560, “Substituted 2-arylbenzothiazoles as kinase inhibitors: hit-to-lead optimization” (Bioorg Med Chem, 2009):

Key:
[1] = target: Casein kinase I isoform epsilon (Homo sapiens) (UniProt P49674); assay: Residual activity of CK1epsilon at 1 uM by microplate scintillation counting
[2] = target: Calcium/calmodulin-dependent protein kinase type II subunit beta (Homo sapiens) (UniProt Q13554); assay: Residual activity of CAMK2B at 0.1 uM by microplate scintillation counting
[3] = target: T1, Protein kinase C epsilon type (Homo sapiens) (UniProt Q02156); assay: Residual activity of PKCepsilon at 1 uM by microplate scintillation counting
T1 sequence (whole entry): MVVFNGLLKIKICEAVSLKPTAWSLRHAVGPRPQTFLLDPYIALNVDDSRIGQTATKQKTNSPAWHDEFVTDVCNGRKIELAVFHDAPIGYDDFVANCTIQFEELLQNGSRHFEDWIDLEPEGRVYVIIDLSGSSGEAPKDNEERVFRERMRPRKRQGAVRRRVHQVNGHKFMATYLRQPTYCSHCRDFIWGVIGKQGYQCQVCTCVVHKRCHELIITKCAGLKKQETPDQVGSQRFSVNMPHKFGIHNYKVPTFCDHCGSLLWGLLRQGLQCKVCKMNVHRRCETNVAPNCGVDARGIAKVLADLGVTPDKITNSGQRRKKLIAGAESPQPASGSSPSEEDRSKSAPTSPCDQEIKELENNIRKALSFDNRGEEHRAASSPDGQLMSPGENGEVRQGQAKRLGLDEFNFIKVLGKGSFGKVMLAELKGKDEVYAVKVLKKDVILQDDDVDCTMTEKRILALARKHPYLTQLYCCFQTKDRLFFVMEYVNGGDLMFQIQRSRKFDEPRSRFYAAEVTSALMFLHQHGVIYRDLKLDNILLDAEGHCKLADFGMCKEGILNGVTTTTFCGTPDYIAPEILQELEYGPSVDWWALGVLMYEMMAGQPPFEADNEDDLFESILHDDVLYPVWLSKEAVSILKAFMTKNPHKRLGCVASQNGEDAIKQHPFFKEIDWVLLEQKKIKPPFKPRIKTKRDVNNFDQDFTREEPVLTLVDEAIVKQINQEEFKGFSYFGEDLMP

[4] = target: T2, TGF-beta receptor type-1 (Homo sapiens) (UniProt P36897); assay: Residual activity of TGFB-R1 at 10 uM by microplate scintillation counting
T2 sequence (whole entry): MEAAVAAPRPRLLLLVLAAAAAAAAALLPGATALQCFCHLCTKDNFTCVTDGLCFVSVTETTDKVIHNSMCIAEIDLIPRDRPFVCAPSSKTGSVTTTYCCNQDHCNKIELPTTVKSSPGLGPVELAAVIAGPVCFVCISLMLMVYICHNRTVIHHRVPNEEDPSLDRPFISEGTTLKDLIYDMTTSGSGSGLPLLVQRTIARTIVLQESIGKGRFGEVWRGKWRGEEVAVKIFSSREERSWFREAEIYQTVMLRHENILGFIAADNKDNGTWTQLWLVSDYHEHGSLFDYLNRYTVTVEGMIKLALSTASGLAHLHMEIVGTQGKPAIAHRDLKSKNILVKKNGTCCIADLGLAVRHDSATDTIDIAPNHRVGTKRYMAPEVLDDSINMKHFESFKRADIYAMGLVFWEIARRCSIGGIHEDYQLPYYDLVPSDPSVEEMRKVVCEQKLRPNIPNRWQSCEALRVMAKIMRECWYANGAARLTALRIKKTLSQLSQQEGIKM

[5] = target: Dual specificity tyrosine-phosphorylation-regulated kinase 1A (Homo sapiens) (UniProt Q13627); assay: Residual activity of DYRK1A at 0.1 uM by microplate scintillation counting
[6] = target: SRSF protein kinase 2 (Homo sapiens) (UniProt P78362); assay: Residual activity of SRPK2 at 0.1 uM by microplate scintillation counting
[7] = target: G protein-coupled receptor kinase 6 (Homo sapiens) (UniProt P43250); assay: Residual activity of GRK6 at 10 uM by microplate scintillation counting
[8] = target: T3, Serine/threonine-protein kinase NLK (Homo sapiens) (UniProt Q9UBE8); assay: Residual activity of NLK at 0.1 uM by microplate scintillation counting
T3 sequence (whole entry): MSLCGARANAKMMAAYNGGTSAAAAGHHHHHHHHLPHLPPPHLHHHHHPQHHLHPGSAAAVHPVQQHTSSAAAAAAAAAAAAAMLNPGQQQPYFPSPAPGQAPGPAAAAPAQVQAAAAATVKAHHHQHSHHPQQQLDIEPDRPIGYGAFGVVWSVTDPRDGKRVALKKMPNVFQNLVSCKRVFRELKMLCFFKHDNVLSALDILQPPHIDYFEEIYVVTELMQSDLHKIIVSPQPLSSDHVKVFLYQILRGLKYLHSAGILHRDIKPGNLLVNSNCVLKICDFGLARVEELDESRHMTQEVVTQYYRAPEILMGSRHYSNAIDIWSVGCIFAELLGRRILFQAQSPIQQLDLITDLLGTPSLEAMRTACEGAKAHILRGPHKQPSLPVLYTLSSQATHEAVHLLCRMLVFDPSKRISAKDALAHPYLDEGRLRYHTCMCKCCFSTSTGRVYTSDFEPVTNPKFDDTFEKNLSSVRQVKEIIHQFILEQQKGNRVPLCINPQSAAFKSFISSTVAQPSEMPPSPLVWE

[9] = target: Calcium/calmodulin-dependent protein kinase type II subunit alpha (Homo sapiens) (UniProt Q9UQM7); assay: Residual activity of CAMK2A at 1 uM by microplate scintillation counting
[10] = target: Cyclin-dependent kinase 4/cyclin D1 (Homo sapiens) (UniProt P11802+P24385); assay: Residual activity of CDK4/Cyclin D1 at 10 uM by microplate scintillation counting; assay type: protein-complex assay
[11] = target: Macrophage-stimulating protein receptor (Homo sapiens) (UniProt Q04912); assay: Residual activity of RON at 10 uM by microplate scintillation counting
[12] = target: Mitogen-activated protein kinase 11 (Homo sapiens) (UniProt Q15759); assay: Residual activity of p38beta at 10 uM by microplate scintillation counting
[13] = target: Tyrosine-protein kinase CSK (Homo sapiens) (UniProt P41240); assay: Residual activity of CSK at 10 uM by microplate scintillation counting
[14] = target: BDNF/NT-3 growth factors receptor (Homo sapiens) (UniProt Q16620); assay: Residual activity of TRK-B at 10 uM by microplate scintillation counting
[15] = target: Glycogen synthase kinase-3 beta (Homo sapiens) (UniProt P49841); assay: Residual activity of GSK3-beta at 0.1 uM by microplate scintillation counting
[16] = target: Tyrosine-protein kinase Lck (Homo sapiens) (UniProt P06239); assay: Residual activity of LCK at 0.1 uM by microplate scintillation counting
Tyrosine-protein kinase Lck (Homo sapiens), sequence (P06239 2-509 limits assumed): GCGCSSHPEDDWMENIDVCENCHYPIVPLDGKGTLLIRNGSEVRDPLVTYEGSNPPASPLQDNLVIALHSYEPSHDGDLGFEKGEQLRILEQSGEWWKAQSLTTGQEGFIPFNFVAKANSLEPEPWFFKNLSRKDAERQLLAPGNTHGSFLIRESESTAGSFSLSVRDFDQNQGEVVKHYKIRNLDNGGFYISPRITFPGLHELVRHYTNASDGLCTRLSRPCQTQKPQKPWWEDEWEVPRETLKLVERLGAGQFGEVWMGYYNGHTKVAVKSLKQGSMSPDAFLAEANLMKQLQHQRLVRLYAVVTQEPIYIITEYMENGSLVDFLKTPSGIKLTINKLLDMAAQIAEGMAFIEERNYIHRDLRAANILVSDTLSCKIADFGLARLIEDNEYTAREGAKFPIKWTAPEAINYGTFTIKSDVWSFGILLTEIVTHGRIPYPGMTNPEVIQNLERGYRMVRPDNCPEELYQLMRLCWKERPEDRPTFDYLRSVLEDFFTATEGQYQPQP

G protein-coupled receptor kinase 6 (Homo sapiens), sequence (P43250 whole entry, looked up): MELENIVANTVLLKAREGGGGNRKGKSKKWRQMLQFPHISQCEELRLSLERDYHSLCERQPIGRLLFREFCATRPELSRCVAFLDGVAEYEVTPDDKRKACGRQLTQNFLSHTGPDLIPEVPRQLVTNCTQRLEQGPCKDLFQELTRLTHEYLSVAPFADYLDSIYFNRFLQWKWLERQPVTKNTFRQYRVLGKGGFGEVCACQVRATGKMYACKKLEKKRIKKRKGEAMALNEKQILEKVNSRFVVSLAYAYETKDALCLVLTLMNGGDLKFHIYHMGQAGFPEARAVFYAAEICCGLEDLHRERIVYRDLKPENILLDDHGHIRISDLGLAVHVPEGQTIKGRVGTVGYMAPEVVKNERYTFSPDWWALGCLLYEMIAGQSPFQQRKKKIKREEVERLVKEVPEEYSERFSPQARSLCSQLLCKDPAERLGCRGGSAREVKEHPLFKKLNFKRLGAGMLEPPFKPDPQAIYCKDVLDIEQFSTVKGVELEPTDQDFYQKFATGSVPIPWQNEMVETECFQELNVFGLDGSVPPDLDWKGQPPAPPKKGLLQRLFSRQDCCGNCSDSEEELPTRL
Macrophage-stimulating protein receptor (Homo sapiens), sequence (Q04912 25-304 limits assumed): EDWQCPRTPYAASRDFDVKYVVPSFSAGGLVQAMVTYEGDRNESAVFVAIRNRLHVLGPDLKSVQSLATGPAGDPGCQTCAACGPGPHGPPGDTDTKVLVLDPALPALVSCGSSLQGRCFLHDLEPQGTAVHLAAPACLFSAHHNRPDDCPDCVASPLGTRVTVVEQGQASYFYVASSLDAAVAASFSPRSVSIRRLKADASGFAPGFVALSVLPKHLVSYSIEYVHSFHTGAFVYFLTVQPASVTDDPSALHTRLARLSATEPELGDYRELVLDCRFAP
Macrophage-stimulating protein receptor (Homo sapiens), sequence (Q04912 310-1400 limits assumed): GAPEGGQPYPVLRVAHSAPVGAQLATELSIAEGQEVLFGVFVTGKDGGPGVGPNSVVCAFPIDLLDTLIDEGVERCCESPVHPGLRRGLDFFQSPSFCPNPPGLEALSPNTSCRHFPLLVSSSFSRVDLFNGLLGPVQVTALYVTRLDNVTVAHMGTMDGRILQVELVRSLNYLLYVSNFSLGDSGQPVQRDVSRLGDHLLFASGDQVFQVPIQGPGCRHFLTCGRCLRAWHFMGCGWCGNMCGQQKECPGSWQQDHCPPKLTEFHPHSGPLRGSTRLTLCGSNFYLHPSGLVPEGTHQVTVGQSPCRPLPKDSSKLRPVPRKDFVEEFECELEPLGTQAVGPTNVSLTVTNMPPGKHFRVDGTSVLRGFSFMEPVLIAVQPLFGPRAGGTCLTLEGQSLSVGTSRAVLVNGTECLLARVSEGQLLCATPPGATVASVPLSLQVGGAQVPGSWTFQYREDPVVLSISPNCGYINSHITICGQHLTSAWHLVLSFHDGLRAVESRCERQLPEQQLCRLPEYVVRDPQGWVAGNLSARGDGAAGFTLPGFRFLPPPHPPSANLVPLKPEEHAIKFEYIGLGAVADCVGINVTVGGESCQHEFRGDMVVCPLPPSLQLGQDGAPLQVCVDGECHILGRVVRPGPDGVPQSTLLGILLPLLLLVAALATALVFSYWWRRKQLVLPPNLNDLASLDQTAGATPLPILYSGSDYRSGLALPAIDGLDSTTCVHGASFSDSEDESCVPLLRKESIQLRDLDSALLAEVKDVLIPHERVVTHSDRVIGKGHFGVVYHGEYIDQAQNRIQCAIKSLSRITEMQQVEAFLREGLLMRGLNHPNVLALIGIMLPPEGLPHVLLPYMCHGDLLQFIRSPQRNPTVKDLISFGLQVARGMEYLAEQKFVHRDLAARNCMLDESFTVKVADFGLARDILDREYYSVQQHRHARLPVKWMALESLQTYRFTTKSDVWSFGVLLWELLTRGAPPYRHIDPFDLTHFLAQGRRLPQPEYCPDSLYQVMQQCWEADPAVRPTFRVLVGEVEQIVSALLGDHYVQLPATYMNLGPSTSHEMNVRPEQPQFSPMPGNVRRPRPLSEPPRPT
Tyrosine-protein kinase CSK (Homo sapiens), sequence (P41240 2-450 limits assumed): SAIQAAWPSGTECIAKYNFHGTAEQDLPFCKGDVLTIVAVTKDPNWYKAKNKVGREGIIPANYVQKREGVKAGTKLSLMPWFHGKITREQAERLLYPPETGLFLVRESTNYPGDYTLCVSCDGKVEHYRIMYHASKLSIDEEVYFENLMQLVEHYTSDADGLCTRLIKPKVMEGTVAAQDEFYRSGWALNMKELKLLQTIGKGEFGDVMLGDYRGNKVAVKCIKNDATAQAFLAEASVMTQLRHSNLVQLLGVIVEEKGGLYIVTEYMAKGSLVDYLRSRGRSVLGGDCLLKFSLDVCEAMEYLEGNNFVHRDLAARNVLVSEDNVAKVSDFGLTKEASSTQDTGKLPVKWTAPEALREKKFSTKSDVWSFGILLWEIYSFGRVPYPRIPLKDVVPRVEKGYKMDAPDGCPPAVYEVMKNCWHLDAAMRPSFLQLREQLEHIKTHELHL
Glycogen synthase kinase-3 beta (Homo sapiens), sequence (P49841 whole entry, looked up): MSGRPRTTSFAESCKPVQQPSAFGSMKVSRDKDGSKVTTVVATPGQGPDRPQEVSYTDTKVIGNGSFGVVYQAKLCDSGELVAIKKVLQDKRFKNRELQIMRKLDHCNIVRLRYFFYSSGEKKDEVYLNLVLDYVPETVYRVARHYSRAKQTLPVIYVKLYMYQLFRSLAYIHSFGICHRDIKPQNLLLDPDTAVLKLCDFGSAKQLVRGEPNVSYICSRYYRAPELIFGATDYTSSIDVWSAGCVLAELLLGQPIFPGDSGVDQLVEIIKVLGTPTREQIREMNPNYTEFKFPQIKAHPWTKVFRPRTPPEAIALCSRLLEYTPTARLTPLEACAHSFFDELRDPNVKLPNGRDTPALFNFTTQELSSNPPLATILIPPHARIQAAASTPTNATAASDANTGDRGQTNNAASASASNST
SRSF protein kinase 2 (Homo sapiens), sequence (P78362 whole entry, looked up): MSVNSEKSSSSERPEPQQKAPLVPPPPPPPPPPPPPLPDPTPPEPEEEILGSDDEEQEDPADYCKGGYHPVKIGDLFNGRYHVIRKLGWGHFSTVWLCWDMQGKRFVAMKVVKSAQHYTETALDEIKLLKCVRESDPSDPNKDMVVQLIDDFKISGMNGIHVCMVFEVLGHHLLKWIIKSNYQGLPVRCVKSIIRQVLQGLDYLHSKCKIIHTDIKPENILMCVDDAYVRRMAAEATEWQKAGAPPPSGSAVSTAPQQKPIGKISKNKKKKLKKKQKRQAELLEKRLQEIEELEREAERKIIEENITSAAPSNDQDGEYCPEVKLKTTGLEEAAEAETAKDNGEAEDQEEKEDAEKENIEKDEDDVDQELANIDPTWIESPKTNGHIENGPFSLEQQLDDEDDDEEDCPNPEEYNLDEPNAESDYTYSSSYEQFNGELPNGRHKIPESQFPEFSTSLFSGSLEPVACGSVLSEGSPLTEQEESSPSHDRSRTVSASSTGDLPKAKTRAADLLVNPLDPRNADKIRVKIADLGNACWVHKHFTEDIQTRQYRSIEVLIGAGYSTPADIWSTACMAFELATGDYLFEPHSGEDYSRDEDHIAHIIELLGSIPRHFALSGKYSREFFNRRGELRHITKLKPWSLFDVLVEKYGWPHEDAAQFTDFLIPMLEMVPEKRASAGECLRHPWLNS
Calcium/calmodulin-dependent protein kinase type II subunit beta (Homo sapiens), sequence (Q13554 whole entry): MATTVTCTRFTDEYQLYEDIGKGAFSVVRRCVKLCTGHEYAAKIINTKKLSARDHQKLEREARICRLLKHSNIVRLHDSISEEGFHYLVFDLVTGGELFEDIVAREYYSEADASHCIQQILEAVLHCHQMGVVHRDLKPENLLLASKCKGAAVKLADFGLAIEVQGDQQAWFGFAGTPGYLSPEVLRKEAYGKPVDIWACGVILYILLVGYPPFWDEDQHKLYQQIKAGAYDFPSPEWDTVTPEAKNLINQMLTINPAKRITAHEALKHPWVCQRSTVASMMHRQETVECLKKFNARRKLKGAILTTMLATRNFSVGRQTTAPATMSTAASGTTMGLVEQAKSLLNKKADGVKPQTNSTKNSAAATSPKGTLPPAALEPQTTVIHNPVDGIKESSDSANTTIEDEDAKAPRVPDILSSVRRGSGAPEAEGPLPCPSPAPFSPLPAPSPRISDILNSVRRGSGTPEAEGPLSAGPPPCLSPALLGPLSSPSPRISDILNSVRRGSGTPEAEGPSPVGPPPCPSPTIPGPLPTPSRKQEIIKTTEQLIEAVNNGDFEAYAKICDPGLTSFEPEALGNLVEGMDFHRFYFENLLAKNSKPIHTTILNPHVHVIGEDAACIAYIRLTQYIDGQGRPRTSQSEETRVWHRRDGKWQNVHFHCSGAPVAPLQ

| Compound | residual activity [1] | residual activity [2] | residual activity [3] | residual activity [4] | residual activity [5] | residual activity [6] | residual activity [7] | residual activity [8] | residual activity [9] | residual activity [10] | residual activity [11] | residual activity [12] | residual activity [13] | residual activity [14] | residual activity [15] | residual activity [16] |
| --- | --- | --- | --- | --- | --- | --- | --- | --- | --- | --- | --- | --- | --- | --- | --- | --- |
| COc1cc2c(Oc3ccc(-c4nc5ccccc5s4)cc3)ncnc2cc1OCCCN1CCN(C)CC1 | 94% | 100% | 94% | 94% | 94% | 103% | 91% | 94% | 69% | 97% | 76% | 350% | 18% | 114% | 96% | 92% |
| COc1cc2c(Oc3ccc(-c4nc5ccccc5s4)cc3)ncnc2cc1OCCCN1CCCC1 | 107% | 73% | 80% | 100% | 87% | 96% | 105% | 90% | 81% | 101% | 53% | 337% | 17% | 82% | 98% | 104% |
| COc1cc2c(Oc3ccc(-c4nc5ccccc5s4)cc3F)ncnc2cc1OCCCN1CCN(C)CC1 | 101% | 65% | 90% | 94% | 89% | 100% | 104% | 91% | 83% | 99% | 55% | 337% | 3% | 69% | 86% | 86% |
